In US20050282743A1, “Molecular interactions in cells” (Arbor Vita Corporation, priority 2001, published 2005):
Ends that are not written are not given here. Peptide text beside a SMILES is read from it. * marks the point of attachment. Biotin = O=C1N[C@H]2[C@H](CS[C@H]2CCCCC(=O)*)N1

How the values were obtained:
Assay in all cases: G' assay (10 uM PL peptide), results of TABLE 7 and TABLE 12
Type in all cases: binding
[1] = target: T1, PDZ protein (GST-PDZ fusion) (Homo sapiens, UniProt P29475); details: PDZ NOS1, PDZ Domain 1
T1 construct: made in house; host or cells: E. coli (DH5alpha, BL21 or JM109)
T1 sequence (P29475 whole entry, the tested form may be a part): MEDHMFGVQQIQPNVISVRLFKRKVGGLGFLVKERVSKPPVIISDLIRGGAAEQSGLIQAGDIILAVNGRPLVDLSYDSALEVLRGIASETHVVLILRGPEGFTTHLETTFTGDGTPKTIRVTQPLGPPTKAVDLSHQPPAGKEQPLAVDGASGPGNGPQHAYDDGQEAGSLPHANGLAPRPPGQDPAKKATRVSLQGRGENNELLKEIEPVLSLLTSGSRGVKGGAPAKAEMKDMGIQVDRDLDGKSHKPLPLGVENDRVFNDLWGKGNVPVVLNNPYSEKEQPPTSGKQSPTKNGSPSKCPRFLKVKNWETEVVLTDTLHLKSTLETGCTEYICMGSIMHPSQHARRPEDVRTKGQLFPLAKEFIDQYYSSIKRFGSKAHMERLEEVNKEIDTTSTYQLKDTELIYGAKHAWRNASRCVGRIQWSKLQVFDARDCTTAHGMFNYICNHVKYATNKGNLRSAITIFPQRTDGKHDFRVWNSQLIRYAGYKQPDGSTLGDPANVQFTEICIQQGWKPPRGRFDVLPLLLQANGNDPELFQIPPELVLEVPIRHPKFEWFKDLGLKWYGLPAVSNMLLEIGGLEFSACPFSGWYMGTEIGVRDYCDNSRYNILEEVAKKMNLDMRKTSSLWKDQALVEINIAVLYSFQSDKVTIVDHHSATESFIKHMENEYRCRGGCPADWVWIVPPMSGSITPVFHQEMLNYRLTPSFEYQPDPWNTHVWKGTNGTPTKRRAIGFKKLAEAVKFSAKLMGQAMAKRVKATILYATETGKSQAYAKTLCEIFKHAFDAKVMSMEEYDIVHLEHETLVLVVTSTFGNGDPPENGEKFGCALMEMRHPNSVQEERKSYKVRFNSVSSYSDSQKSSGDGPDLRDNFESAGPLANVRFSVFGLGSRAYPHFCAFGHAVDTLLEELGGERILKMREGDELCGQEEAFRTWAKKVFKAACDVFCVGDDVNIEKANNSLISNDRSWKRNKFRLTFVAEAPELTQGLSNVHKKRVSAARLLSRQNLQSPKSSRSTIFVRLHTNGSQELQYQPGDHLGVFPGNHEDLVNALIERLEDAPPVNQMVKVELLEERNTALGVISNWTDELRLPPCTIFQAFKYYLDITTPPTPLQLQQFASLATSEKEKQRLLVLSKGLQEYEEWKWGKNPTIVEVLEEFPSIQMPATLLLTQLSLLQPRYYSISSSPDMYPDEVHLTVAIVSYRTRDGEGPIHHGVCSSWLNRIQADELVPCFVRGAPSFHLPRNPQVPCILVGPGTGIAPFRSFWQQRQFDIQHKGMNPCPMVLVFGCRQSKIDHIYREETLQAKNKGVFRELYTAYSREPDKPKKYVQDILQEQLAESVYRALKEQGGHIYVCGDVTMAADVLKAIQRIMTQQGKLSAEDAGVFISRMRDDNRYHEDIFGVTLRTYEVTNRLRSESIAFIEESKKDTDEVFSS
Procedure, shortened: (§1)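 Same steps as the G-zero format, apart from a peptide concentration of 10 uM in place of 20 uM in step 2. Amino-terminally biotinylated PL peptides bind GST-PDZ fusions, and retained peptide is quantified by 450 nm absorbance.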

[2] = target: T2, PDZ protein (GST-PDZ fusion) (Homo sapiens, UniProt Q07157)
T2 construct: made in house; host or cells: E. coli (DH5alpha, BL21 or JM109)
T2 sequence (Q07157 whole entry, the tested form may be a part): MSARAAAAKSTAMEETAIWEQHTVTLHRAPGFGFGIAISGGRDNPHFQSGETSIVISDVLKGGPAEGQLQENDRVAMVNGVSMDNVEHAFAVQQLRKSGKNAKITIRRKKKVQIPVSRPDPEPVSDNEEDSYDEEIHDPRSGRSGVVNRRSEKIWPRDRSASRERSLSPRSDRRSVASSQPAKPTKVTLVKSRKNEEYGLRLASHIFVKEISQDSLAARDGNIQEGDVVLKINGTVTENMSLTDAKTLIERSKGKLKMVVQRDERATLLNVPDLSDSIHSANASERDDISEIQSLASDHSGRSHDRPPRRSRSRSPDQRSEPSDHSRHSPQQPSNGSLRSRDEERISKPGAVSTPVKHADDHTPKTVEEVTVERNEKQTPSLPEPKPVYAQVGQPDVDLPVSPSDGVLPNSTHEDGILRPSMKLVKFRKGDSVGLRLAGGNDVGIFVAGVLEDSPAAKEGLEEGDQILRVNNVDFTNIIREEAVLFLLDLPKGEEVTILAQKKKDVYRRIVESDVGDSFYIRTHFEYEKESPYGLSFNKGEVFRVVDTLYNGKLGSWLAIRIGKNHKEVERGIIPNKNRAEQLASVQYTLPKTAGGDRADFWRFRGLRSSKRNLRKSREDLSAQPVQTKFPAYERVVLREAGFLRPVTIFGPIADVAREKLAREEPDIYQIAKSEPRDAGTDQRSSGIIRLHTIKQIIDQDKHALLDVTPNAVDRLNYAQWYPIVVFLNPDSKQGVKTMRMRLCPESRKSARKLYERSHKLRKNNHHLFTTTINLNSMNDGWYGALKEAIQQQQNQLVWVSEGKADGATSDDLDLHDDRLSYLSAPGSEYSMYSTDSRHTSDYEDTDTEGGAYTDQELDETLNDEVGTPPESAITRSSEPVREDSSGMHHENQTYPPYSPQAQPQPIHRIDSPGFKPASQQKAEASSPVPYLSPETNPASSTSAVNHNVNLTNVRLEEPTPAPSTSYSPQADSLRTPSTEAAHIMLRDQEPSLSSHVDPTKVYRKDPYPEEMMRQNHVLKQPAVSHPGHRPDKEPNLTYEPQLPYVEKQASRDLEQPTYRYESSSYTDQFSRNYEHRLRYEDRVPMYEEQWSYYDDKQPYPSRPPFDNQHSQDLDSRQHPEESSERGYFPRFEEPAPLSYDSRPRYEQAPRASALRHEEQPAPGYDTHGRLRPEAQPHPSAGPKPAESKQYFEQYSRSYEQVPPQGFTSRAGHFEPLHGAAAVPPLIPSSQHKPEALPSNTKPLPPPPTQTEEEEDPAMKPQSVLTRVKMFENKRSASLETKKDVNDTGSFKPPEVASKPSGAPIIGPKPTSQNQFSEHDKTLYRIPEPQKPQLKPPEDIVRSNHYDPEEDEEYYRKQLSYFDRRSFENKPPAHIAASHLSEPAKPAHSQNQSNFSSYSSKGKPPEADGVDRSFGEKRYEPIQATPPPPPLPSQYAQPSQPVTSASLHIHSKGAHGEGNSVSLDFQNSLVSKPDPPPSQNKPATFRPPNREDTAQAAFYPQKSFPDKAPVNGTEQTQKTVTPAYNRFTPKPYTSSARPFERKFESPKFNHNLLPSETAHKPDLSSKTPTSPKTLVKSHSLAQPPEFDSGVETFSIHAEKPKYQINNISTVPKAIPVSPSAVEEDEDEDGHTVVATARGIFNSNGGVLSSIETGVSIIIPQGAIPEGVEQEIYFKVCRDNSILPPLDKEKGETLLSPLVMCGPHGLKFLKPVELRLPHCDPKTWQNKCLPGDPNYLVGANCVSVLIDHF
Procedure, shortened: as §1

[3] = target: T3, PDZ protein (GST-PDZ fusion) (Homo sapiens, UniProt O14745)
T3 construct: made in house; host or cells: E. coli (DH5alpha, BL21 or JM109)
T3 sequence (O14745 1-358): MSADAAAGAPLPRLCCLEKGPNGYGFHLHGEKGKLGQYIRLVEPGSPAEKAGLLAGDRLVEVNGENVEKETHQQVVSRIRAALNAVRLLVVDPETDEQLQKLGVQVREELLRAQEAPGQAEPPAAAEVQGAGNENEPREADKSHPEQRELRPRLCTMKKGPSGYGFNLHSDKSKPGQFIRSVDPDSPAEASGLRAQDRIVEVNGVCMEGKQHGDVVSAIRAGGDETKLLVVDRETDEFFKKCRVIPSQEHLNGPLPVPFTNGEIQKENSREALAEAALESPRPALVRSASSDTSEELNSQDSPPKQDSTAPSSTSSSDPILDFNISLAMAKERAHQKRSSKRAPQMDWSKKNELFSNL
Procedure, shortened: as §1

[4] = target: T4, PDZ protein (GST-PDZ fusion) (Homo sapiens, UniProt Q5T2W1); details: PDZ PDZK1, PDZ Domain 2, 3, 4
T4 construct: made in house; host or cells: E. coli (DH5alpha, BL21 or JM109)
T4 sequence (Q5T2W1 1-519): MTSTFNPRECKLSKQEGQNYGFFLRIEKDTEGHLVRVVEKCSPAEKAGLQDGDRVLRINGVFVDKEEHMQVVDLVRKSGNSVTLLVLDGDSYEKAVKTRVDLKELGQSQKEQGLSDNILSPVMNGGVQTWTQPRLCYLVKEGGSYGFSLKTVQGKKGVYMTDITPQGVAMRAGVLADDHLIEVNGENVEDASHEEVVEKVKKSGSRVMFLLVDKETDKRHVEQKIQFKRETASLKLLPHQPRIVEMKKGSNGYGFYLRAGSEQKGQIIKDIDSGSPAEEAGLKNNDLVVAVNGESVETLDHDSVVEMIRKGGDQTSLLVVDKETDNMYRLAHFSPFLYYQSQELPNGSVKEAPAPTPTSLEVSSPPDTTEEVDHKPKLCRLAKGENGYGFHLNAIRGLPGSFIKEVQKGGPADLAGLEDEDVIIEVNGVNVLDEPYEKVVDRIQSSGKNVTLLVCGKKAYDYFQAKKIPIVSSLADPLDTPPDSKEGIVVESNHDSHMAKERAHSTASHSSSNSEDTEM
Procedure, shortened: as §1

Compound	Classification ([3]; PDZ EBP50, PDZ Domain 1)	Classification ([3]; PDZ EBP50, PDZ Domain 2)	Classification [4]	other results
CC[C@H](C)[C@H](NC(=O)[C@H](CCCCN)NC(=O)[C@@H](NC(=O)[C@H](CO)NC(=O)[C@@H]1CCCN1C(=O)[C@H](Cc1ccccc1)NC(=O)[C@@H](NC(=O)[C@@H](NC(=O)[C@H](CCCNC(=N)N)NC(=O)[C@H](CCC(=O)O)NC(=O)[C@H](CC(C)C)NC(=O)[C@H](CC(C)C)NC(=O)[C@H](CC(C)C)NC(=O)[C@@H](NC(=O)CNC(=O)[C@@H](NC(=O)CCCC[C@@H]1SC[C@@H]2NC(=O)N[C@@H]21)C(C)C)[C@@H](C)O)C(C)C)[C@@H](C)CC)C(C)C)C(=O)N[C@@H](C)C(=O)N[C@H](C(=O)N[C@@H](CC(C)C)C(=O)N[C@H](C(=O)O)C(C)C)[C@@H](C)O [Adenovirus E4 Type9]	–	–	–	Classification ([1]; PL peptide 10 uM): 5 (A450 nm of 4 more than 2× repeated); Classification ([2]; PDZ ZO-1, PDZ Domain 1, PL peptide 10 uM): 2 (A450 nm 1-2)
CC[C@H](C)[C@H](NC(=O)[C@H](CC(=O)O)NC(=O)[C@H](CCC(=O)O)NC(=O)[C@H](CCCNC(=N)N)NC(=O)[C@@H](NC(=O)CCCC[C@@H]1SC[C@@H]2NC(=O)N[C@@H]21)[C@@H](C)O)C(=O)N[C@@H](Cc1ccc(O)cc1)C(=O)N[C@H](C(=O)N[C@@H](CC(N)=O)C(=O)N[C@@H](Cc1ccc(O)cc1)C(=O)N1CCC[C@H]1C(=O)N[C@H](C(=O)N[C@@H](Cc1ccccc1)C(=O)N[C@@H](CO)C(=O)N[C@@H](CCCNC(=N)N)C(=O)N[C@@H](CCCNC(=N)N)C(=O)N1CCC[C@H]1C(=O)N[C@@H](CCCCN)C(=O)N[C@H](C(=O)N[C@@H](CCCNC(=N)N)C(=O)N[C@H](C(=O)O)C(C)C)[C@@H](C)O)[C@@H](C)O)C(C)C [DNAM-1] (Biotin-TREDIYVNYPTFSRRPKTRV-OH; C-terminus assumed)	1 (A450 nm 0-1)	1 (A450 nm 0-1)	–	Classification [1]: 1 (A450 nm 0-1); Classification ([2]; PDZ ZO-1, PDZ Domain 1): 2 (A450 nm 1-2)
CC(C)C[C@H](NC(=O)[C@H](Cc1c[nH]c2ccccc12)NC(=O)[C@H](Cc1c[nH]cn1)NC(=O)[C@H](CCCNC(=N)N)NC(=O)[C@H](CC(C)C)NC(=O)[C@@H](NC(=O)[C@H](Cc1ccccc1)NC(=O)[C@H](CCC(N)=O)NC(=O)[C@H](CCCNC(=N)N)NC(=O)[C@@H](NC(=O)[C@H](CCC(=O)O)NC(=O)CNC(=O)[C@H](CCCNC(=N)N)NC(=O)[C@H](CC(=O)O)NC(=O)[C@@H](NC(=O)[C@H](CC(C)C)NC(=O)[C@H](CCC(=O)O)NC(=O)[C@H](CCCNC(=N)N)NC(=O)CCCC[C@@H]1SC[C@@H]2NC(=O)N[C@@H]21)C(C)C)C(C)C)[C@@H](C)O)C(=O)N[C@@H](CCCCN)C(=O)N[C@H](C(=O)O)C(C)C [Dopamine transporter (Na+-dependent)] (Biotin-RELVDRGEVRQFTLRHWLKV-OH; C-terminus assumed)	–	–	–	Classification ([2]; PDZ ZO-1, PDZ Domain 2): 1 (A450 nm 0-1)
CC(C)C[C@H](NC(=O)[C@H](C)NC(=O)[C@@H](NC(=O)[C@H](CCC(=O)O)NC(=O)[C@H](CCCNC(=N)N)NC(=O)[C@H](CCCNC(=N)N)NC(=O)CNC(=O)[C@H](CCC(N)=O)NC(=O)[C@H](CC(C)C)NC(=O)[C@H](CCCNC(=N)N)NC(=O)CNC(=O)CNC(=O)[C@H](CCCNC(=N)N)NC(=O)[C@H](C)NC(=O)[C@H](CO)NC(=O)[C@H](CCCNC(=N)N)NC(=O)CNC(=O)CNC(=O)[C@H](C)NC(=O)[C@H](C)NC(=O)CCCC[C@@H]1SC[C@@H]2NC(=O)N[C@@H]21)[C@@H](C)O)C(=O)O [HPV E6 33 (modified)] (Biotin-AAGGRSARGGRLQGRRETAL-OH; C-terminus assumed)	2 (A450 nm 1-2)	2 (A450 nm 1-2)	1 (A450 nm 0-1)	–
CC(C)C[C@H](NC(=O)[C@H](CCCNC(=N)N)NC(=O)CNC(=O)CNC(=O)[C@H](CCCNC(=N)N)NC(=O)[C@H](C)NC(=O)[C@@H]1CCCN1C(=O)[C@H](CCCNC(=N)N)NC(=O)CNC(=O)CNC(=O)[C@@H](NC(=O)[C@H](C)NC(=O)CCCC[C@@H]1SC[C@@H]2NC(=O)N[C@@H]21)C(C)C)C(=O)N[C@@H](CCC(N)=O)C(=O)NCC(=O)N[C@@H](CCCNC(=N)N)C(=O)N[C@@H](CCCNC(=N)N)C(=O)N[C@@H](CCC(N)=O)C(=O)N[C@H](C(=O)N[C@@H](CCC(N)=O)C(=O)N[C@H](C(=O)O)C(C)C)[C@@H](C)O [HPV E6 58 (modified)] (Biotin-AVGGRPARGGRLQGRRQTQV-OH; C-terminus assumed)	–	–	1 (A450 nm 0-1)	–
CC[C@H](C)[C@H](NC(=O)[C@H](CO)NC(=O)[C@H](CCC(=O)O)NC(=O)[C@H](Cc1ccc(O)cc1)NC(=O)[C@H](CC(=O)O)NC(=O)[C@H](CC(N)=O)NC(=O)[C@H](CCC(=O)O)NC(=O)[C@H](CCCCN)NC(=O)CCCC[C@@H]1SC[C@@H]2NC(=O)N[C@@H]21)C(=O)N[C@@H](CO)C(=O)N[C@@H](CC(=O)O)C(=O)N[C@@H](CC(C)C)C(=O)N[C@@H](CCC(N)=O)C(=O)N[C@@H](CCC(N)=O)C(=O)NCC(=O)N[C@@H](CCCNC(=N)N)C(=O)N[C@@H](CC(=O)O)C(=O)N[C@H](C(=O)N[C@H](C(=O)N[C@@H](CCCNC(=N)N)C(=O)N[C@@H](CC(C)C)C(=O)O)[C@@H](C)O)[C@@H](C)CC [PAG] (Biotin-KENDYESISDLQQGRDITRL-OH; C-terminus assumed)	–	–	1 (A450 nm 0-1)	–
CC[C@H](C)[C@H](NC(=O)[C@H](C)NC(=O)[C@H](CC(C)C)NC(=O)[C@H](Cc1c[nH]c2ccccc12)NC(=O)[C@H](Cc1c[nH]cn1)NC(=O)[C@H](CCC(N)=O)NC(=O)[C@H](CC(C)C)NC(=O)[C@H](CCC(N)=O)NC(=O)[C@H](Cc1ccccc1)NC(=O)[C@H](CCC(N)=O)NC(=O)[C@H](CCCNC(=N)N)NC(=O)[C@@H](NC(=O)[C@H](CC(=O)O)NC(=O)[C@H](CCCNC(=N)N)NC(=O)[C@H](CCC(N)=O)NC(=O)[C@H](C)NC(=O)[C@@H](NC(=O)[C@H](CC(C)C)NC(=O)[C@H](Cc1c[nH]cn1)NC(=O)[C@H](Cc1c[nH]cn1)NC(=O)CCCC[C@@H]1SC[C@@H]2NC(=O)N[C@@H]21)C(C)C)[C@@H](C)CC)C(=O)O [noradrenaline transporter] (Biotin-HHLVAQRDIRQFQLQHWLAI-OH; C-terminus assumed)	–	–	–	Classification ([2]; PDZ ZO-1, PDZ Domain 2): 2 (A450 nm 1-2)
A2AA_HUMAN (modified) (Biotin-HDFRRAFKKILARGDRKRIV; not fully specified)	–	–	–	Classification ([2]; PDZ ZO-1, PDZ Domain 2): 4 (A450 nm 3-4)
GPVPGEPAKPKTSAHHATFV (Biotin-GPVPGEPAKPKTSAHHATFV)	–	–	–	Classification ([2]; PDZ ZO-1, PDZ Domain 1): 1 (A450 nm 0-1)

Continued, in another order:

Classification ([3]; PDZ EBP50, PDZ Domain 1)	Classification ([3]; PDZ EBP50, PDZ Domain 2)	Classification [4]	Compound	other results
2 (A450 nm 1-2)	2 (A450 nm 1-2)	2 (A450 nm 1-2)	CC[C@H](C)[C@H](NC(=O)CNC(=O)[C@H](CO)NC(=O)[C@H](Cc1ccccc1)NC(=O)[C@@H](NC(=O)[C@H](CS)NC(=O)CNC(=O)CNC(=O)[C@H](C)NC(=O)[C@@H]1CCCN1C(=O)[C@@H](NC(=O)[C@@H]1CCCN1C(=O)CCCC[C@@H]1SC[C@@H]2NC(=O)N[C@@H]21)[C@@H](C)CC)[C@@H](C)O)C(=O)N[C@@H](Cc1ccccc1)C(=O)N1CCC[C@H]1C(=O)N[C@H](C(=O)N[C@@H](CC(C)C)C(=O)N[C@H](C(=O)N[C@@H](CO)C(=O)N1CCC[C@H]1C(=O)N[C@@H](CC(C)C)C(=O)O)[C@@H](C)O)[C@@H](C)O [KIA 1481] (Biotin-PIPAGGCTFSGIFPTLTSPL-OH; C-terminus assumed)	–
–	–	1 (A450 nm 0-1)	ARHRVTSYTSSSVNVSSNL (Biotin-ARHRVTSYTSSSVNVSSNL) [IL-8RB]	–
1 (A450 nm 0-1)	2 (A450 nm 1-2)	–	LASKSAEEGKQIPDSLSTDL (Biotin-LASKSAEEGKQIPDSLSTDL) [Dock2]	–
5 (A450 nm of 4 more than 2× repeated)	2 (A450 nm 1-2)	1 (A450 nm 0-1)	PPATPSPRLALPAHHNATRL (Biotin-PPATPSPRLALPAHHNATRL) [Na+/Pi cotransporter 2]	–
